Measurements taken from patent US7705030B2, “Amino-5-(5-membered)hetero-arylimidazolone compounds and the use thereof for β-secretase modulation” (Wyeth LLC, priority 2005, dated 2010).
pIC50: −log10 of the molar value.

Legend:
[1] = target: human BACE1 (Homo sapiens, UniProt P56817); test: Fluorescent kinetic assay: Evaluation of BACE-1 Binding Affinity of Test Compounds; assay type: biochemical; settings: 10 nM enzyme, 25 μM substrate WABC-6, 50 mM Na-Acetate pH 4.5, room temperature
How it was run: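 Run with 10 nM human BACE1 and 25 μM WABC-6 FRET peptide in 50 mM Na-acetate pH 4.5, 0.05% CHAPS, 25% PBS at room temperature. Fluorescence (ex 320/em 420 nm) was read every 40 sec for 30 min, and initial cleavage rates were taken from linear slopes across ≥10 inhibitor concentrations.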

Chain of human BACE1 (P56817 46-501): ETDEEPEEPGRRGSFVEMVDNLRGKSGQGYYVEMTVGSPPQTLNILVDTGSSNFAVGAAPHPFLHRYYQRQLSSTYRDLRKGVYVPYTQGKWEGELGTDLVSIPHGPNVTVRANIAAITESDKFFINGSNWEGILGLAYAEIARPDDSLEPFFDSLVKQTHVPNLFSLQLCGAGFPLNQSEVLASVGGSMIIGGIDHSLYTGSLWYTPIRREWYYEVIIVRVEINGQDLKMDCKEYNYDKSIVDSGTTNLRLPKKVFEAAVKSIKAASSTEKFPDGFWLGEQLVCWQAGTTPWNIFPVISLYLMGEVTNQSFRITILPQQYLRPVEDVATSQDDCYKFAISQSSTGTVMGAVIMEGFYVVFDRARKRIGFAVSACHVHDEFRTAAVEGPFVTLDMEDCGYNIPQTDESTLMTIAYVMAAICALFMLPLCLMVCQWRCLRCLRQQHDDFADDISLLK

Row | Structure (SMILES) | pIC50 [1] | melting point
1 | COC(=O)c1cc(C2(c3ccc(F)c(-c4cncnc4)c3)N=C(N)N(C)C2=O)cn1CCF (stereo not drawn) [Example 118, Methyl 4-[2-Amino-4-(4-fluoro-3-pyrimidinyl-5-phenyl)-1-methyl-5-oxo-4,5-dihydro-1H-imidazol-4-yl]-1-(2-fluoroethyl)-1H-pyrrole-2-carboxylate] | 7.00 to 8.00 | 88 to 90 °C
2 | COC(=O)c1cc([C@]2(c3ccc(F)c(-c4cncnc4)c3)N=C(N)N(C)C2=O)cn1CCF [Example 119A, Methyl 4-[(4S)2-Amino-4-(4-fluoro-3-pyrimidinyl-5-phenyl)-1-methyl-5-oxo-4,5-dihydro-1H-imidazol-4-yl]-1-(2-fluoroethyl)-1H-pyrrole-2-carboxylate] | 7.00 to 8.00 | 186 to 188 °C
3 | COC(=O)c1cc([C@@]2(c3ccc(F)c(-c4cncnc4)c3)N=C(N)N(C)C2=O)cn1CCF [Example 119B, Methyl 4-[(4R)2-Amino-4-(4-fluoro-3-pyrimidinyl-5-phenyl)-1-methyl-5-oxo-4,5-dihydro-1H-imidazol-4-yl]-1-(2-fluoroethyl)-1H-pyrrole-2-carboxylate] | 6.00 to 6.96 | 186 to 188 °C
4 | COC(=O)c1cc(C2(c3ccc(F)c(-c4cncnc4)c3)N=C(N)N(C)C2=O)cn1CC(F)(F)F (stereo not drawn) [Example 121] | 7.00 to 8.00 | 182 to 184 °C
5 | COC(=O)c1cc(C2(c3ccc(F)c(-c4cccnc4F)c3)N=C(N)N(C)C2=O)cn1CCF (stereo not drawn) [Example 122] | 7.00 to 8.00 | 127 to 128 °C
6 | CCn1cc(C2(c3ccc(F)c(-c4cccnc4F)c3)N=C(N)N(C)C2=O)cc1C(=O)OC (stereo not drawn) [Example 123] | 7.00 to 8.00 | 113 to 115 °C
7 | CCOC(=O)c1cc(C2(c3ccc(F)c(-c4cccnc4F)c3)N=C(N)N(C)C2=O)cn1CC (stereo not drawn) [Example 125] | 7.00 to 8.00 | 114 to 115 °C
8 | CC(C)OC(=O)c1cc(C2(c3ccc(F)c(-c4cncnc4)c3)N=C(N)N(C)C2=O)cn1CCF (stereo not drawn) [Example 127] | 6.00 to 6.96 | 167 to 170 °C
9 | CCOc1ccc(C2(c3cc(C(=O)NC)n(CC)c3)N=C(N)N(C)C2=O)cc1-c1cccnc1F (stereo not drawn) [Example 128] | < 6.00 | 148 to 150 °C
10 | CCCC(=O)Nc1cccc(C2(c3cc(C(=O)CC)n(CC)c3)N=C(N)N(C)C2=O)c1 (stereo not drawn) [Example 129, N-{3-[2-amino-4-(1-ethyl-5-propionyl-1H-pyrrol-3-yl)-1-methyl-5-oxo-4,5-dihydro-1H-imidazol-4-yl]-phenyl}-butyramide] | 6.00 to 6.96 | 201 to 205 °C
11 | CCC(=O)c1cc(C2(c3cccc(-c4cccnc4F)c3)N=C(N)N(C)C2=O)cn1CCCF (stereo not drawn) [Example 152] | 7.00 to 8.00 | 105 °C
12 | CCCCNC(=O)c1cc(C2(c3cccc(-c4cccnc4F)c3)N=C(N)N(C)C2=O)cn1CC (stereo not drawn) [Example 160] | 7.00 to 8.00 | 118 to 120 °C
13 | CCn1cc(C2(c3cccc(-c4cccnc4F)c3)N=C(N)N(C)C2=O)cc1C(=O)NC1CCCC1 (stereo not drawn) [Example 162] | 6.00 to 6.96 | 127 to 128 °C
14 | CCn1cc(C2(c3cccc(-c4cccnc4F)c3)N=C(N)N(C)C2=O)cc1C(=O)N1CCCCC1 (stereo not drawn) [Example 163] | 7.00 to 8.00 | 111 to 113 °C
15 | CCn1cc(C2(c3cccc(-c4cccnc4F)c3)N=C(N)N(C)C2=O)cc1C(=O)N1CCOCC1 (stereo not drawn) [Example 164] | 7.00 to 8.00 | 108 to 109 °C
16 | CCn1cc(C2(c3cccc(-c4cccnc4F)c3)N=C(N)N(C)C2=O)cc1C(=O)NCc1ccc(F)cc1 (stereo not drawn) [Example 166] | 6.00 to 6.96 | 110 to 112 °C
17 | CCC(=O)c1cc(C2(c3cccc(-c4cccnc4F)c3)N=C(N)N(C)C2=O)cn1CCF (stereo not drawn) [Example 167] | 7.00 to 8.00 | 100 °C
18 | CCCCCC(=O)c1cc(C2(c3cccc(-c4cccnc4F)c3)N=C(N)N(C)C2=O)cn1CC (stereo not drawn) [Example 169] | 7.00 to 8.00 | 71 to 73 °C
19 | CCn1cc(C2(c3cccc(-c4cccnc4F)c3)N=C(N)N(C)C2=O)cc1C(=O)c1ccccc1 (stereo not drawn) [Example 170] | 7.00 to 8.00 | 104 to 106 °C
20 | CCn1cc(C2(c3cccc(-c4cccnc4F)c3)N=C(N)N(C)C2=O)cc1C(=O)C1CCCCC1 (stereo not drawn) [Example 171] | 7.00 to 8.00 | 94 to 100 °C
21 | CCn1cc(C2(c3cccc(-c4cccnc4F)c3)N=C(N)N(C)C2=O)cc1C(=O)C1CC1 (stereo not drawn) [Example 172] | 7.00 to 8.00 | 98 to 100 °C
22 | CCC(=O)c1cc(C2(c3cccc(-c4cccnc4F)c3)N=C(N)N(C)C2=O)cn1CCCC(F)(F)F (stereo not drawn) [Example 176] | 7.00 to 8.00 | 91 to 94 °C
23 | CCC(=O)c1cc(C2(c3cccc(-c4cccnc4F)c3)N=C(N)N(C)C2=O)cn1CCCCF (stereo not drawn) [Example 178] | 7.00 to 8.00 | 105 °C

Continued, values first:

Row | pIC50 [1] | melting point | Structure (SMILES)
24 | 7.00 to 8.00 | 167 to 172 °C | CCC(=O)c1cc(C2(c3cccc(-c4cncnc4)c3)N=C(N)N(C)C2=O)cs1 (stereo not drawn) [Example 116, 2-Amino-3-methyl-5-(5-propionyl-thiophen-3-yl)-5-(3-pyrimidin-5-yl-phenyl)-3,5-dihydro-imidazol-4-one]
25 | 6.00 to 6.96 | 117 to 118 °C | CC(C)OC(=O)c1cc(C2(c3ccc(F)c(-c4cccnc4F)c3)N=C(N)N(C)C2=O)cn1CCF (stereo not drawn) [Example 124]
26 | 6.00 to 6.96 | 120 to 141 °C | CCC(=O)Nc1cccc(C2(c3cc(C(=O)CC)n(CC)c3)N=C(N)N(C)C2=O)c1 (stereo not drawn) [Example 130, N-{3-[2-amino-4-(1-ethyl-5-propionyl-1H-pyrrol-3-yl)-1-methyl-5-oxo-4,5-dihydro-1H-imidazol-4-yl]-phenyl}-propionamide]
27 | 7.00 to 8.00 | 95 to 115 °C | CCC(=O)c1cc(C2(c3cccc(NC(=O)COC)c3)N=C(N)N(C)C2=O)cn1CC (stereo not drawn) [Example 131, N-{3-[2-amino-4-(1-ethyl-5-propionyl-1H-pyrrol-3-yl)-1-methyl-5-oxo-4,5-dihydro-1H-imidazol-4-yl]-phenyl}-2-methoxy-acetamide]
28 | 7.00 to 8.00 | 95 °C | CCCOc1cccc(C2(c3cc(C(=O)CC)n(CC)c3)N=C(N)N(C)C2=O)c1 (stereo not drawn) [Example 132, 2-Amino-5-(1-ethyl-5-propionyl-1H-pyrrol-3-yl)-3-methyl-5-(3-propoxyphenyl)-3,5-dihydro-4H-imidazol-4-one]
29 | 7.00 to 8.00 | 70 °C | CCCCCOc1cccc(C2(c3cc(C(=O)CC)n(CC)c3)N=C(N)N(C)C2=O)c1 (stereo not drawn) [Example 133]
30 | 6.00 to 6.96 | 93 °C | CCC(=O)c1cc(C2(c3cccc(OCCC(C)(C)C)c3)N=C(N)N(C)C2=O)cn1CC (stereo not drawn) [Example 134]
31 | 6.00 to 6.96 | 76 °C | CCCCOc1cccc(C2(c3cc(C(=O)CC)n(CC)c3)N=C(N)N(C)C2=O)c1 (stereo not drawn) [Example 136]
32 | 7.00 to 8.00 | 86 °C | CCC(=O)c1cc(C2(c3cccc(OCC4CC4)c3)N=C(N)N(C)C2=O)cn1CC (stereo not drawn) [Example 137]
33 | 7.00 to 8.00 | 78 °C | CCC(=O)c1cc(C2(c3cccc(OCC(C)C)c3)N=C(N)N(C)C2=O)cn1CC (stereo not drawn) [Example 138]
34 | 7.00 to 8.00 | 69 °C | C=CCCCOc1cccc(C2(c3cc(C(=O)CC)n(CC)c3)N=C(N)N(C)C2=O)c1 (stereo not drawn) [Example 140]
35 | 6.00 to 6.96 | 79 to 81 °C | CCCOc1cccc(C2(c3cccs3)N=C(N)N(C)C2=O)c1 (stereo not drawn) [Example 141, 2-Amino-3-methyl-5-(3-propoxyphenyl)-5-thien-2-yl-3,5-dihydro-4H-imidazol-4-one]
36 | 6.00 to 6.96 | 84 to 88 °C | CC(C)CCOc1cccc(C2(c3ccsc3)N=C(N)N(C)C2=O)c1 (stereo not drawn) [Example 144]
37 | < 6.00 | 88 to 90 °C | CN1C(=O)C(c2ccsc2)(c2cccc(OCC3CCCCC3)c2)N=C1N (stereo not drawn) [Example 147]
38 | 6.00 to 6.96 | 70 to 73 °C | CC(C)COc1cccc(C2(c3ccsc3)N=C(N)N(C)C2=O)c1 (stereo not drawn) [Example 148]
39 | 7.00 to 8.00 | 118 °C | CCCn1cc(C2(c3cccc(-c4cccnc4F)c3)N=C(N)N(C)C2=O)cc1C(=O)CC (stereo not drawn) [Example 149, 2-Amino-5-[3-(2-fluoropyridin-3-yl)phenyl]-3-methyl-5-(5-propionyl-1-propyl-1H-pyrrol-3-yl)-3,5-dihydro-4H-imidazol-4-one]
40 | 7.00 to 8.00 | 126 to 128 °C | CCC(=O)c1cc(C2(c3cccc(-c4cccnc4F)c3)N=C(N)N(C)C2=O)cn1CC (stereo not drawn) [Example 155]
41 | 7.00 to 8.00 | 138 to 140 °C | CCn1cc(C2(c3cccc(-c4cccnc4F)c3)N=C(N)N(C)C2=O)cc1C(=O)NC (stereo not drawn) [Example 157]
42 | 7.00 to 8.00 | 132 to 135 °C | CCNC(=O)c1cc(C2(c3cccc(-c4cccnc4F)c3)N=C(N)N(C)C2=O)cn1CC (stereo not drawn) [Example 158]
43 | 6.00 to 6.96 | 120 to 123 °C | CCCNC(=O)c1cc(C2(c3cccc(-c4cccnc4F)c3)N=C(N)N(C)C2=O)cn1CC (stereo not drawn) [Example 159]
44 | 6.00 to 6.96 | 121 to 123 °C | CCn1cc(C2(c3cccc(-c4cccnc4F)c3)N=C(N)N(C)C2=O)cc1C(=O)NC(C)C (stereo not drawn) [Example 161]
45 | 6.00 to 6.96 | > 200 °C | CCn1cc(C2(c3cccc(-c4cccnc4F)c3)N=C(N)N(C)C2=O)cc1C(=O)N(C)C (stereo not drawn) [Example 165]
46 | 7.00 to 8.00 | 85 to 88 °C | CCn1cc(C2(c3cccc(-c4cccnc4F)c3)N=C(N)N(C)C2=O)cc1C(=O)C(C)C (stereo not drawn) [Example 173]
47 | 7.00 to 8.00 | 210 to 211 °C | CCC(C)C(=O)c1cc(C2(c3cccc(-c4cccnc4F)c3)N=C(N)N(C)C2=O)cn1CC (stereo not drawn) [Example 174]
48 | 7.00 to 8.00 | 98 to 102 °C | CCC(=O)c1cc(C2(c3cccc(-c4cccnc4F)c3)N=C(N)N(C)C2=O)cn1CC(C)C (stereo not drawn) [Example 179]
